Experiments:
D(1A) dopamine receptor = D(1A) dopamine receptor (Homo sapiens, UniProt P21728)
[1] = target: T1, 5-hydroxytryptamine receptor 1A (Homo sapiens, UniProt P08908); assay type: functional, cell-based
T1 sequence (P08908 whole entry): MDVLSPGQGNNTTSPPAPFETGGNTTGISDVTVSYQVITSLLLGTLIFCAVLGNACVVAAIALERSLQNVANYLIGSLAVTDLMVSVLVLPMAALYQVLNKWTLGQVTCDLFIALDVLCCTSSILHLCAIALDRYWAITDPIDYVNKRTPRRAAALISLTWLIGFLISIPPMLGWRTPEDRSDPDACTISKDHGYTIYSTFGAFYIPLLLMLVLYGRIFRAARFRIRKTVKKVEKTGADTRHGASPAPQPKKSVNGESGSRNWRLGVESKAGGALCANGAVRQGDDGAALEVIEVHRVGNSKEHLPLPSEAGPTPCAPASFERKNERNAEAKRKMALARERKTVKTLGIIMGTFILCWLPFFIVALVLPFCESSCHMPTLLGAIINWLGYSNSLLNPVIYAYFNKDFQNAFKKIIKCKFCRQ

Cannabinoid receptor 1 [2] = target: T2, Cannabinoid receptor 1 (Homo sapiens, UniProt P21554)
T2 sequence (P21554 whole entry): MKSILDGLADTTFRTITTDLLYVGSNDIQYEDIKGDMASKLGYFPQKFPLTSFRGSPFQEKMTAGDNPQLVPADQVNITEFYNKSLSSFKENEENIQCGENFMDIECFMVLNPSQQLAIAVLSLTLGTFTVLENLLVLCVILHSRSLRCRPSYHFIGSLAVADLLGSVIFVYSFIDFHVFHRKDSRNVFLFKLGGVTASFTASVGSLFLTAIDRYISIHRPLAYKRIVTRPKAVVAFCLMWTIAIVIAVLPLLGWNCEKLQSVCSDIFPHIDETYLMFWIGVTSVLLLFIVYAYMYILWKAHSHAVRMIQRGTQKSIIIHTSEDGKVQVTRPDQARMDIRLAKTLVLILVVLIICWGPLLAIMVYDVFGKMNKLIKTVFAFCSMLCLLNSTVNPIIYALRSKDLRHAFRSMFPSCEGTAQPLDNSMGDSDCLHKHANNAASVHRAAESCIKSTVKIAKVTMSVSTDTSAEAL

Mu-type opioid receptor = Mu-type opioid receptor (Homo sapiens, UniProt P35372)
Mu-type opioid receptor, sequence (P35372 whole entry): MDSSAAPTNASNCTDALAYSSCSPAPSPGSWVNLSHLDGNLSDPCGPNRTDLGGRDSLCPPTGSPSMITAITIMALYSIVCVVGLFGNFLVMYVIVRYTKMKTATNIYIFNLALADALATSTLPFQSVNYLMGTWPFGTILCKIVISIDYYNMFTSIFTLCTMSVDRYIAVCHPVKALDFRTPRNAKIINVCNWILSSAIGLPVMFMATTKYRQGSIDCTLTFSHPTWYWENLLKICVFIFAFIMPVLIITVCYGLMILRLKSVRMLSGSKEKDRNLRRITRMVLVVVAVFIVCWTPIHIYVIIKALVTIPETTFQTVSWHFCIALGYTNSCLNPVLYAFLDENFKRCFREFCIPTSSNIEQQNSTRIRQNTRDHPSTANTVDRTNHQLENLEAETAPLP

Melanocortin receptor 4 = Melanocortin receptor 4 (Homo sapiens, UniProt P32245)
Melanocortin receptor 4, sequence (P32245 whole entry): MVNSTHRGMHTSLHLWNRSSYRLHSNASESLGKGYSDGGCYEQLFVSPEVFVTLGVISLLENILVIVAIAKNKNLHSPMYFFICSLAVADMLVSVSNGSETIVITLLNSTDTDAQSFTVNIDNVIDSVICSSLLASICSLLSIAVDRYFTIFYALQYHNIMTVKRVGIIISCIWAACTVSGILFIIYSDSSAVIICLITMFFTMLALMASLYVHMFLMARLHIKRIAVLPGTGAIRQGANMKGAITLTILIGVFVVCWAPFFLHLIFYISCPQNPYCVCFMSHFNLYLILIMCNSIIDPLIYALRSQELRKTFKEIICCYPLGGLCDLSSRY

[3] = target: T3, 5-hydroxytryptamine receptor 2A (Homo sapiens, UniProt P28223); assay type: functional, cell-based
T3 sequence (P28223 whole entry): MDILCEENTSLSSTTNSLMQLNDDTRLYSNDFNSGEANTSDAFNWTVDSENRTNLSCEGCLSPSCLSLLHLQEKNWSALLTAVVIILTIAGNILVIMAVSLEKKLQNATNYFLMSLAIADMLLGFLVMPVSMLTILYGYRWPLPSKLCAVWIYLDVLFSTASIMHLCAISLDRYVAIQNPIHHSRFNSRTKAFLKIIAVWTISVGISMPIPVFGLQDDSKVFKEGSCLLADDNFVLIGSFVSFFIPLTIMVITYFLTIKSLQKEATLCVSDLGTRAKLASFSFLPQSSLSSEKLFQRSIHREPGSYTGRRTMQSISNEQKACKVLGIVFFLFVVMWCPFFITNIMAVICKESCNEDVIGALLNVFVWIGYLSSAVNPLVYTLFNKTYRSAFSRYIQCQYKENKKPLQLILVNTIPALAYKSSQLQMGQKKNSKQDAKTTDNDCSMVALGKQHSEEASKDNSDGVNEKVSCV

[4] = target: T3, 5-hydroxytryptamine receptor 2A; assay type: functional, cell-based; remark: listed apart in the source
[5] = target: T4, Alpha-1A adrenergic receptor (Homo sapiens, UniProt P35348)
T4 sequence (P35348 whole entry): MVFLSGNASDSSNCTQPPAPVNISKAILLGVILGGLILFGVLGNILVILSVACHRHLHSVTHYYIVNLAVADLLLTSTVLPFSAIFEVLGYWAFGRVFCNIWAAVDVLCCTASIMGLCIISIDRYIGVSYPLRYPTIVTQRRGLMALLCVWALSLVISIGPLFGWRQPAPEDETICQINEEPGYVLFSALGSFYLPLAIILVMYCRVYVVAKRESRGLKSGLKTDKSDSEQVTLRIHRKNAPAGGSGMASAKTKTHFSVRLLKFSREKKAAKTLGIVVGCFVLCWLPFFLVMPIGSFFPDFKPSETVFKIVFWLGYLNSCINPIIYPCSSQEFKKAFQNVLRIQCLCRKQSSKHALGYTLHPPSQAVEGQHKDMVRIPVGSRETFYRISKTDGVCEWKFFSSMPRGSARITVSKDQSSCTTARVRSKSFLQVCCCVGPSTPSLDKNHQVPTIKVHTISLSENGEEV

Cannabinoid receptor 1 [6] = target: T2, Cannabinoid receptor 1; assay type: functional, cell-based
[7] = target: T1, 5-hydroxytryptamine receptor 1A
Endothelin-1 receptor = target: T5, Endothelin-1 receptor (Homo sapiens, UniProt P25101)
T5 sequence (P25101 whole entry): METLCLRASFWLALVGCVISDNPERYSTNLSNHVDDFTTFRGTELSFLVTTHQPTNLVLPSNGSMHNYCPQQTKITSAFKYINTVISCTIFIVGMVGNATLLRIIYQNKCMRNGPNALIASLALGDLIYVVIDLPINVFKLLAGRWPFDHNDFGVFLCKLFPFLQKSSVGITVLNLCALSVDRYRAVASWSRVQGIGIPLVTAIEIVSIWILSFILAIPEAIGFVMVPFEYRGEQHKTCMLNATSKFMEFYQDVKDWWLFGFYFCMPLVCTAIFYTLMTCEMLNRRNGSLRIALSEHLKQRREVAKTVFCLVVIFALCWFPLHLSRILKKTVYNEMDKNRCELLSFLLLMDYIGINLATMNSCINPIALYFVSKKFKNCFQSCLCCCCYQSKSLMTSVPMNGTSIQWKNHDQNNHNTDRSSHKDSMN

Cannabinoid receptor 1 [8] = target: T2, Cannabinoid receptor 1; assay type: functional, cell-based; remark: listed apart in the source
[9] = target: Beta-2 adrenergic receptor (Homo sapiens, UniProt P07550); assay type: functional, cell-based
Beta-2 adrenergic receptor, sequence (P07550 whole entry): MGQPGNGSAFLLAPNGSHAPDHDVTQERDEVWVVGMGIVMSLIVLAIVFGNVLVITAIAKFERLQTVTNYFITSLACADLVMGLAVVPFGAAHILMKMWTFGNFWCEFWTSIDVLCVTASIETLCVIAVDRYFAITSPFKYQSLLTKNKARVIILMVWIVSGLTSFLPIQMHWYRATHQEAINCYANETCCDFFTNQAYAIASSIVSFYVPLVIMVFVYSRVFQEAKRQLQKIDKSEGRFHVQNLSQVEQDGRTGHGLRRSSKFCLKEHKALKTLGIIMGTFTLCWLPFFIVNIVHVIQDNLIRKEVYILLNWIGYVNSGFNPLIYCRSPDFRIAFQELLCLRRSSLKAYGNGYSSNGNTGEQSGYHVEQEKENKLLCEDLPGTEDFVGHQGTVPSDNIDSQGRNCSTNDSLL

Androgen receptor = target: T6, Androgen receptor (Rattus norvegicus, UniProt P15207); assay type: functional
T6 sequence (P15207 whole entry): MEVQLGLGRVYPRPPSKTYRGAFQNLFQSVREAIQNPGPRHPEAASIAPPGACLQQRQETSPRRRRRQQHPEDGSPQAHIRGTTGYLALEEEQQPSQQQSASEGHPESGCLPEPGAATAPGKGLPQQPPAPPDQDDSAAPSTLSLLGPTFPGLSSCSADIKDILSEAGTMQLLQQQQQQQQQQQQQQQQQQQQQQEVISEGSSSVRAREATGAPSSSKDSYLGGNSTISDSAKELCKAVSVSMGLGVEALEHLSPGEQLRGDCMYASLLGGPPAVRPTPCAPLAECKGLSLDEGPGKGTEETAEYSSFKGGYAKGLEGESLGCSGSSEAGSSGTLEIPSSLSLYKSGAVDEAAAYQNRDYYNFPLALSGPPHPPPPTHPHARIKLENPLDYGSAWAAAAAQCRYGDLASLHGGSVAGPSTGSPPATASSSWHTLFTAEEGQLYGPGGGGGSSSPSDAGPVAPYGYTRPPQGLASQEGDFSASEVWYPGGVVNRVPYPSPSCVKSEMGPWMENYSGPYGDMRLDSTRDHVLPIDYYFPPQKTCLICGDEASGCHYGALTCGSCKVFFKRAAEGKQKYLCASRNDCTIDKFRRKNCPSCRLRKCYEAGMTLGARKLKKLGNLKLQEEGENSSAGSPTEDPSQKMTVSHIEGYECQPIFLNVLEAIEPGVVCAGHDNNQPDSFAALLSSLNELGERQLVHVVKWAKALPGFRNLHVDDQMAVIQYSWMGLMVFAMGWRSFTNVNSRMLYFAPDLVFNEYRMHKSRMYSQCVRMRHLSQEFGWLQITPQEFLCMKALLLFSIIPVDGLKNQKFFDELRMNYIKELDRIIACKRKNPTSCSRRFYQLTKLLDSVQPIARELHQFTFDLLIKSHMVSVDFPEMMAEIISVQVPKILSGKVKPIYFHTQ
Further: assay procedure not described here.

D(1A) dopamine receptor, sequence (P21728 whole entry): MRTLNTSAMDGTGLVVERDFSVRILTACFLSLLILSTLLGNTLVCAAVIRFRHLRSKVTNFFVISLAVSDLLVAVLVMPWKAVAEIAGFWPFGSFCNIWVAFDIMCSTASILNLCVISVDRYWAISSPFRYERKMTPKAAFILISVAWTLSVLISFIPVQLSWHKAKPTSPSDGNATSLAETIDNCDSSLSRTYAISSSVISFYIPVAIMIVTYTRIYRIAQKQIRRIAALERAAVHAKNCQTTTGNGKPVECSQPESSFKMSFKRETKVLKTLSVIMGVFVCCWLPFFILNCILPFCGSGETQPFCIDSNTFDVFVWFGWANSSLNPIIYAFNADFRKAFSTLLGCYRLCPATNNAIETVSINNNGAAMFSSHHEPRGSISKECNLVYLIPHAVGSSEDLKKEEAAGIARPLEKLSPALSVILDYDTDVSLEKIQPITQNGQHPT

| SMILES | AC50 (D(1A) dopamine receptor) [µM] | AC50 [1] [µM] | AC50 (Cannabinoid receptor 1 [2]) [µM] | AC50 (Mu-type opioid receptor) [µM] | AC50 (Melanocortin receptor 4) [µM] | AC50 [3] [µM] | AC50 [4] [µM] | AC50 [5] [µM] | AC50 (Cannabinoid receptor 1 [6]) [µM] | AC50 [7] [µM] | AC50 (Endothelin-1 receptor) [µM] | AC50 (Cannabinoid receptor 1 [8]) [µM] | AC50 [9] [µM] | AC50 (Androgen receptor) [µM] |
| --- | --- | --- | --- | --- | --- | --- | --- | --- | --- | --- | --- | --- | --- | --- |
| CC(=O)[C@@]1(O)CC[C@H]2[C@@H]3C=C(Cl)C4=CC(=O)[C@@H]5C[C@@H]5[C@]4(C)[C@H]3CC[C@@]21C [CYPROTERONE] | > 10 | > 10 | > 10 | > 30 | > 10 | > 10 | > 10 | > 10 |  |  |  |  |  |  |
| C/C(=C\C(=O)OCCCCCCCCC(=O)O)C[C@@H]1OC[C@H](C[C@@H]2O[C@H]2[C@@H](C)[C@H](C)O)[C@@H](O)[C@H]1O [MUPIROCIN] |  | > 10 | > 10 | > 30 | > 10 |  |  | > 10 |  |  |  |  |  |  |
| CC(=O)OCC(=O)[C@@]1(O)[C@H](C)C[C@H]2[C@@H]3CCC4=CC(=O)C=C[C@]4(C)[C@@]3(F)[C@@H](O)C[C@@]21C [DEXAMETHASONE ACETATE] |  | > 10 |  | > 30 | > 30 |  |  | > 10 | 20 | > 10 | > 30 | > 30 |  |  |
| CCN1CCCC1CNC(=O)c1cc(S(=O)(=O)CC)c(N)cc1OC (configuration not stated) [AMISULPRIDE] |  | > 30 |  |  |  |  |  | > 30 | > 30 |  | > 30 | > 30 | > 30 |  |
| Cc1ncc2n1-c1ccc(Cl)cc1C(c1ccccc1F)=NC2 [MIDAZOLAM] |  |  | > 10 | > 30 | > 30 |  |  | > 10 |  | > 10 |  |  | > 30 |  |
| C=C[C@@]1(C)CC(=O)[C@]2(O)[C@@]3(C)[C@@H](O)CCC(C)(C)[C@@H]3[C@H](O)[C@H](OC(C)=O)[C@@]2(C)O1 [COLFORSIN] |  | 1.2 |  |  |  | > 30 | 18 |  | > 30 |  | > 30 | > 30 |  |  |
| CCN(CC)CCN1C(=O)CN=C(c2ccccc2F)c2cc(Cl)ccc21 [FLURAZEPAM] |  |  | > 10 | > 30 | > 30 |  |  | > 10 |  | 5.47 |  |  | > 30 |  |
| COc1cc2c(cc1OC)C(CCc1ccc(Cl)cc1)N(C)CC2 (configuration not stated) [METHOPHOLINE] |  | > 10 | > 10 | > 30 | > 30 | > 10 | > 10 | > 10 |  |  |  |  |  |  |
| COc1cc2ncnc(Nc3ccc(F)c(Cl)c3)c2cc1NC(=O)/C=C/CN1CCCCC1 [DACOMITINIB ANHYDROUS] |  |  |  |  |  | > 30 | > 30 |  |  |  |  |  |  |  |
| Nc1cc(-c2ccncc2)c[nH]c1=O [INAMRINONE] |  | > 10 | > 10 | > 30 | > 30 |  |  | > 10 | > 30 |  |  | > 30 | > 30 |  |
| NC(=O)CN1CCCC1=O |  |  |  |  |  |  |  |  | > 30 |  | > 30 | > 30 | > 30 |  |
| CC(=O)[C@]1(O)Cc2c(O)c3c(c(O)c2[C@@H](O[C@H]2C[C@H](N)[C@H](O)[C@H](C)O2)C1)C(=O)c1ccccc1C3=O [IDARUBICIN] |  |  |  |  |  |  |  |  |  |  | > 30 |  | > 30 | 17 |
| Cn1cnc2c(F)c(Nc3ccc(Br)cc3Cl)c(C(=O)NOCCO)cc21 [SELUMETINIB] | > 10 |  |  | > 30 |  |  |  | > 10 |  | > 10 |  |  |  |  |
| Cn1c(=O)cc(N2CCC[C@@H](N)C2)n(Cc2ccccc2C#N)c1=O [ALOGLIPTIN] | > 10 |  | > 10 | 8.8 | > 30 |  |  |  |  | > 10 | > 30 |  |  |  |
| C[N@+]1(CCF)[C@@H]2CC[C@H]1C[C@@H](OC(=O)C(O)(c1ccccc1)c1ccccc1)C2 |  |  |  |  |  | > 30 | > 30 |  | > 30 |  | > 30 | > 30 |  |  |
| OCc1cc(C(O)CNCCCCCCOCCCCc2ccccc2)ccc1O (configuration not stated) [SALMETEROL] | > 10 |  | > 10 | > 30 | > 30 |  |  |  | > 30 |  |  | > 30 |  |  |
| O=C1CN=C(c2ccccc2)c2cc([N+](=O)[O-])ccc2N1 [NITRAZEPAM] |  | > 10 | > 10 | > 30 | > 10 |  |  | > 30 |  |  |  |  |  |  |
| O=C1CN=C(c2ccccn2)c2cc(Br)ccc2N1 [BROMAZEPAM] |  | > 10 | > 10 | > 30 | > 10 | > 10 | > 10 | > 10 |  |  |  | > 30 | > 30 |  |
| CCCCCC(=O)O[C@]1(C(C)=O)CC[C@H]2[C@@H]3CCC4=CC(=O)CC[C@]4(C)[C@H]3CC[C@@]21C [HYDROXYPROGESTERONE CAPROATE] |  |  | > 30 |  | > 30 | > 30 | > 30 | > 30 | > 30 |  |  | > 30 | > 30 |  |
| CCN(CC)CCNC(=O)c1cc(S(C)(=O)=O)ccc1OC [TIAPRIDE] |  | > 30 |  |  |  |  |  |  | > 30 |  | > 30 | > 30 |  |  |
| CN(C(=O)c1c(O)c2ccccc2n(C)c1=O)c1ccccc1 [ROQUINIMEX] |  |  |  |  |  | > 30 | > 30 |  |  |  |  |  |  |  |
| CC1=C(C)C(=O)C(C(CCCCCC(=O)O)c2ccccc2)=C(C)C1=O (configuration not stated) [SERATRODAST] |  |  | > 30 |  | > 30 | > 30 | > 30 | > 30 |  |  |  |  |  |  |
| CCOC(=O)O[C@]1(C(=O)OCCl)CC[C@H]2[C@@H]3CCC4=CC(=O)C=C[C@]4(C)[C@H]3[C@@H](O)C[C@@]21C [LOTEPREDNOL ETABONATE] |  |  | > 30 |  |  | > 30 | > 30 |  |  |  | > 30 |  |  |  |
| CC(=O)SC[C@@H](C)C(=O)N1CCC[C@H]1C(=O)N[C@@H](Cc1ccccc1)C(=O)O |  |  |  |  |  | > 30 | > 30 |  | > 30 |  | > 30 | > 30 |  |  |

Source: ChEMBL document CHEMBL5291721, “A preclinical secondary pharmacology resource illuminates target-adverse drug reaction associations of marketed drugs” (Nat Commun, 2023)
